Experimental data: the CheMixHub viscosity set

Assay: xn = mol fraction of the nth substance listed

O=CC(Cl)(Cl)Cl + CCO
viscosity [mPa·s], 101 kPa
Settings | 313.15 K | 318.15 K | 323.15 K
x1 = 0.1 | 1.126 | 1.031 | 0.939
x1 = 0.15 | 1.406 | 1.271 | 1.141
x1 = 0.2 | 1.753 | 1.569 | 1.397
x1 = 0.25 | 2.2 | 1.951 | 1.702
x1 = 0.3 | 2.783 | 2.383 | 2.074
x1 = 0.4 | 4.053 | 3.366 | 2.848
x1 = 0.425 | 4.352 | 3.58 | 3
x1 = 0.45 | 4.632 | 3.769 | 3.141
x1 = 0.475 | 4.757 | 3.854 | 3.201
x1 = 0.49 | 4.703 | 3.788 | 3.143
x1 = 0.5 | 4.565 | 3.673 | 3.064
x1 = 0.55 | 3.937 | 3.201 | 2.706
x1 = 0.6 | 3.311 | 2.737 | 2.392
x1 = 0.7 | 2.258 | 1.989 | 1.757
x1 = 0.75 | 1.976 | 1.724 | 1.53
x1 = 0.8 | 1.755 | 1.542 | 1.38
x1 = 0.9 | 1.351 | 1.219 | 1.12

ClC(Cl)Cl + CCOC(C)=O
303.15 K, 101.3 kPa
Settings | viscosity [mPa·s]
x2 = 0.1062 | 0.5361
x2 = 0.2031 | 0.5455
x2 = 0.305 | 0.5471
x2 = 0.4094 | 0.5381
x2 = 0.5069 | 0.5255
x2 = 0.6112 | 0.5028
x2 = 0.808 | 0.4504
x2 = 0.9027 | 0.4254

CC(=O)OCc1ccccc1 + CCc1ccccc1
viscosity [mPa·s], 101 kPa
Settings | x1 = 0.0913 | x1 = 0.176 | x1 = 0.2732 | x1 = 0.3687 | x1 = 0.467 | x1 = 0.5592 | x1 = 0.6706 | x1 = 0.7597 | x1 = 0.8652 | x1 = 0.9304
303.15 K | 0.643 | 0.692 | 0.755 | 0.825 | 0.912 | 1.006 | 1.133 | 1.265 | 1.428 | 1.526
313.15 K | 0.577 | 0.616 | 0.663 | 0.717 | 0.784 | 0.845 | 0.943 | 1.033 | 1.156 | 1.233

CC[n+]1ccn(C)c1.COS(=O)(=O)[O-] + CN1CCCC1=O
101 kPa
Settings | viscosity [mPa·s]
298.15 K, x1 = 0.243 | 9.19
298.15 K, x1 = 0.9139 | 68.9
298.15 K, x1 = 0.9581 | 76.81
303.15 K, x1 = 0.243 | 7.33
303.15 K, x1 = 0.282 | 8.88
308.15 K, x1 = 0.282 | 6.76
308.15 K, x1 = 0.3482 | 9.45
313.15 K, x1 = 0.3482 | 8.19
